Source: the supplement of paper PMC13380429

Tests used:
Calu-3 [1] = assay: drug sensitivity score (DSS) for viability; higher = more toxic; extreme values may be limits of the assay; conditions: 72 h
Vero E6 [2] = assay: as above; conditions: 72 h
U2OS [3] = assay: as above; conditions: 72 h
Caco-2 [4] = assay: as above; conditions: 72 h
HepG2 [5] = assay: as above; conditions: 72 h
HepG2 [6] = assay: relative viability EC50 (midpoint between 100% and the lowest measured viability); higher = less toxic; conditions: 72 h
[7] = test system: A549-ACE2 infected with SARS-CoV-2; assay: morphology score (similarity to uninfected cells); higher = more like uninfected cells; conditions: 24 h
Calu-3 [8] = assay: cell viability relative to DMSO; higher = less toxic; conditions: 72 h
Vero E6 [9] = assay: as above; conditions: 72 h
U2OS [10] = assay: as above; conditions: 72 h
Caco-2 [11] = assay: as above; conditions: 72 h
HepG2 [12] = assay: as above; conditions: 72 h
A549-ACE2 [13] = assay: drug-induced phospholipidosis relative to tamoxifen; higher = more phospholipidosis
[14] = test system: A549-ACE2 infected with SARS-CoV-2; assay: cell count relative to DMSO; higher = less toxic; conditions: 24 h
[15] = test system: A549-ACE2 infected with SARS-CoV-2; assay: SARS-CoV-2 infection rate relative to DMSO; higher = more infection; conditions: 24 h
A549-ACE2 [16] = assay: phospholipidosis EC50; higher = less potent phospholipidosis inducer
Calu-3 [17] = assay: relative viability EC50 (midpoint between 100% and the lowest measured viability); higher = less toxic; conditions: 72 h
Vero E6 [18] = assay: as above; conditions: 72 h
U2OS [19] = assay: as above; conditions: 72 h
Caco-2 [20] = assay: as above; conditions: 72 h

CC(C)C[C@H](NC(=O)CNC(=O)c1cc(Cl)ccc1Cl)B1OC(=O)C(CC(=O)O)(CC(=O)O)O1 [MLN9708]
Conditions	drug sensitivity score	relative viability EC50 [µM]
Caco-2 [4]	28.8	–
Calu-3 [1]	27.3	–
HepG2 [5]	22.1	–
HepG2 [6]	–	0.139
U2OS [3]	24.7	–
Vero E6 [2]	23.8	–

Conditions	SARS-CoV-2 infection rate, [15] [%]	cell count, [14] [%]	cell viability, Caco-2 [11] [%]	cell viability, Calu-3 [8] [%]	cell viability, HepG2 [12] [%]	cell viability, U2OS [10] [%]	cell viability, Vero E6 [9] [%]	morphology score, [7]
1 nM	–	–	99.6	95.1	89.6	101	97	–
10 nM	–	–	94.6	95.1	104	95.8	99.5	–
0.1 µM	88	88	–	–	–	–	–	0.35
100 nM	–	–	11.4	19.6	65	43.2	44.1	–
0.3 µM	83	78	–	–	–	–	–	0.28
1 µM	48	65	–	–	–	–	–	0.27
1000 nM	–	–	5.1	6.6	4.3	0.5	10.5	–
3 µM	33	57	–	–	–	–	–	0.28
10000 nM	–	–	5	5.2	0.5	0	4.8	–

A549-ACE2 [13], 24 h
Conditions	drug-induced phospholipidosis [%]
0.3 µM	4.58
0.833333 µM	-2.83

C[C@@H]1C[C@H]2[C@@H]3CCC4=CC(=O)C=C[C@]4(C)[C@@]3(Cl)[C@@H](O)C[C@]2(C)[C@@]1(OC(=O)c1ccco1)C(=O)CCl [MOMETASONE FUROATE]
Conditions	SARS-CoV-2 infection rate [%]	cell count [%]	cell viability [%]	morphology score	phospholipidosis EC50 [µM]
A549-ACE2 [16], 24 h	–	–	–	–	3.35
Caco-2 [11], 1 nM	–	–	91.3	–	–
Caco-2 [11], 10 nM	–	–	109	–	–
Caco-2 [11], 100 nM	–	–	85.6	–	–
Caco-2 [11], 1000 nM	–	–	96	–	–
Caco-2 [11], 10000 nM	–	–	83.1	–	–
Calu-3 [8], 1 nM	–	–	98.7	–	–
Calu-3 [8], 10 nM	–	–	101	–	–
Calu-3 [8], 100 nM	–	–	90.3	–	–
Calu-3 [8], 1000 nM	–	–	97.1	–	–
Calu-3 [8], 10000 nM	–	–	90.9	–	–
HepG2 [12], 1 nM	–	–	114	–	–
HepG2 [12], 10 nM	–	–	116	–	–
HepG2 [12], 100 nM	–	–	122	–	–
HepG2 [12], 1000 nM	–	–	97.4	–	–
HepG2 [12], 10000 nM	–	–	105	–	–
U2OS [10], 1 nM	–	–	98.5	–	–
U2OS [10], 10 nM	–	–	101	–	–
U2OS [10], 100 nM	–	–	94	–	–
U2OS [10], 1000 nM	–	–	102	–	–
U2OS [10], 10000 nM	–	–	92.8	–	–
Vero E6 [9], 1 nM	–	–	109	–	–
Vero E6 [9], 10 nM	–	–	100	–	–
Vero E6 [9], 100 nM	–	–	103	–	–
Vero E6 [9], 1000 nM	–	–	102	–	–
Vero E6 [9], 10000 nM	–	–	100	–	–
[7], 0.3 µM	–	–	–	0.19	–
[7], 3 µM	–	–	–	0.42	–
[7], 10 µM	–	–	–	0.6	–
[7], 30 µM	–	–	–	0.34	–
[14], 0.3 µM	–	97	–	–	–
[14], 3 µM	–	103	–	–	–
[14], 10 µM	–	108	–	–	–
[14], 30 µM	–	94	–	–	–
[15], 0.3 µM	99	–	–	–	–
[15], 3 µM	69	–	–	–	–
[15], 10 µM	28	–	–	–	–
[15], 30 µM	71	–	–	–	–

Conditions	drug sensitivity score	relative viability EC50 [µM]
Caco-2 [4]	0.5	–
Caco-2 [20]	–	> 10
Calu-3 [1]	0	–
Calu-3 [17]	–	> 10
HepG2 [5]	0	–
HepG2 [6]	–	> 10
U2OS [3]	0	–
U2OS [19]	–	> 10
Vero E6 [2]	0	–
Vero E6 [18]	–	> 10

drug-induced phospholipidosis [%], A549-ACE2 [13]
Conditions	0.3 µM	0.833333 µM	3.33333 µM	6.66667 µM	10 µM	30 µM
24 h	10.4	17.5	33.2	53.3	54.9	51.9
48 h	5.23	13.8	27.7	41.1	38.5	41.2
72 h	-4	-3.08	16.9	30.4	39.5	29.6

COc1ccccc1C1(O)CCN(CCCn2c3ccccc3c3ccccc32)CC1 [NNC-05-2090]
Conditions	SARS-CoV-2 infection rate [%]	cell count [%]	cell viability [%]	morphology score	phospholipidosis EC50 [µM]
A549-ACE2 [16], 24 h	–	–	–	–	1.98
A549-ACE2 [16], 48 h	–	–	–	–	3.85
A549-ACE2 [16], 72 h	–	–	–	–	4.18
Caco-2 [11], 1 nM	–	–	97.4	–	–
Caco-2 [11], 10 nM	–	–	91.7	–	–
Caco-2 [11], 100 nM	–	–	109	–	–
Caco-2 [11], 1000 nM	–	–	83.1	–	–
Caco-2 [11], 10000 nM	–	–	68.4	–	–
Calu-3 [8], 1 nM	–	–	94.1	–	–
Calu-3 [8], 10 nM	–	–	99.9	–	–
Calu-3 [8], 100 nM	–	–	90.7	–	–
Calu-3 [8], 1000 nM	–	–	89.1	–	–
Calu-3 [8], 10000 nM	–	–	7.5	–	–
HepG2 [12], 1 nM	–	–	94.9	–	–
HepG2 [12], 10 nM	–	–	99.7	–	–
HepG2 [12], 100 nM	–	–	90.4	–	–
HepG2 [12], 1000 nM	–	–	99.9	–	–
HepG2 [12], 10000 nM	–	–	40.8	–	–
U2OS [10], 1 nM	–	–	99.4	–	–
U2OS [10], 10 nM	–	–	94.1	–	–
U2OS [10], 100 nM	–	–	102	–	–
U2OS [10], 1000 nM	–	–	94.6	–	–
U2OS [10], 10000 nM	–	–	82.9	–	–
Vero E6 [9], 1 nM	–	–	90.9	–	–
Vero E6 [9], 10 nM	–	–	97.5	–	–
Vero E6 [9], 100 nM	–	–	88.1	–	–
Vero E6 [9], 1000 nM	–	–	92.1	–	–
Vero E6 [9], 10000 nM	–	–	74.5	–	–
[7], 0.1 µM	–	–	–	0.12	–
[7], 0.3 µM	–	–	–	0.04	–
[7], 1 µM	–	–	–	0.29	–
[7], 3 µM	–	–	–	0.85	–
[14], 0.1 µM	–	98	–	–	–
[14], 0.3 µM	–	106	–	–	–
[14], 1 µM	–	109	–	–	–
[14], 3 µM	–	119	–	–	–
[15], 0.1 µM	98	–	–	–	–
[15], 0.3 µM	98	–	–	–	–
[15], 1 µM	86	–	–	–	–
[15], 3 µM	34	–	–	–	–

Conditions	drug sensitivity score	relative viability EC50 [µM]
Caco-2 [4]	3.4	–
Calu-3 [1]	7	–
Calu-3 [17]	–	2.19
HepG2 [5]	3.2	–
HepG2 [6]	–	3.14
U2OS [3]	0.9	–
U2OS [19]	–	> 10
Vero E6 [2]	1.9	–

drug-induced phospholipidosis [%], A549-ACE2 [13]
Conditions	0.3 µM	0.833333 µM	3.33333 µM	6.66667 µM	10 µM
24 h	3.96	10.5	87.6	108	101
48 h	4.69	12.2	64.2	102	116
72 h	5.37	9.7	49.7	106	121

c1ccc(-c2ccc(C(c3ccccc3)n3ccnc3)cc2)cc1 (stereo not drawn) [bifonazole]
Conditions	drug sensitivity score	relative viability EC50 [µM]
Caco-2 [4]	1.2	–
Caco-2 [20]	–	> 10
Calu-3 [1]	0	–
Calu-3 [17]	–	> 10
HepG2 [5]	0	–
HepG2 [6]	–	> 10
U2OS [3]	0	–
U2OS [19]	–	> 10
Vero E6 [2]	0	–
Vero E6 [18]	–	> 10

Conditions	SARS-CoV-2 infection rate, [15] [%]	cell count, [14] [%]	cell viability, Caco-2 [11] [%]	cell viability, Calu-3 [8] [%]	cell viability, HepG2 [12] [%]	cell viability, U2OS [10] [%]	cell viability, Vero E6 [9] [%]	morphology score, [7]
1 nM	–	–	98	98.4	98.2	96.9	85.9	–
10 nM	–	–	99.7	95	97.1	95.9	91.2	–
100 nM	–	–	96.1	106	91.8	97.2	86.5	–
0.3 µM	91	99	–	–	–	–	–	0.26
1000 nM	–	–	94.9	97.1	98.6	95.2	91.5	–
3 µM	103	112	–	–	–	–	–	-0.04
10 µM	106	111	–	–	–	–	–	0.19
10000 nM	–	–	78.7	99.1	93.6	94.7	100	–
30 µM	89	102	–	–	–	–	–	0.57

drug-induced phospholipidosis [%], A549-ACE2 [13]
Conditions	0.3 µM	0.833333 µM	3.33333 µM	6.66667 µM	10 µM	30 µM
24 h	-0.45	-9.45	-4.39	3.56	6	40.1
48 h	3.19	-4.19	2.93	5.02	14.4	44.7
72 h	2.27	-1.31	4.12	5.49	19.7	–
